Results published in US20250099474A1 (priority 2022, published 2025).

Legend:
SARS-CoV-2 [1] = test: Phase 2/3 study, Phase 2a Part: COVID-19 symptom score and exacerbation (Ordinal scale); format: in vivo, human; details: mild/moderate patients
Description: The 750/250 mg group received 750 mg on Day 1 as a loading dose and 250 mg on Days 2 to 5 as a maintenance dose.

SARS-CoV-2 [2] = test: Cytopathic effect (CPE) suppression effect confirmation test using VeroE6/TMPRSS2 cells; format: cell-based
SARS-CoV-2 [3] = test: Phase 2/3 study, Phase 2b Part: SARS-CoV-2 virus titer on Day 4; format: in vivo, human; details: for Change from baseline in SARS-CoV-2 virus titer on Day 4: Adjusted mean value by covariance analysis (standard error) / Change from baseline in SARS-CoV-2 virus titer on Day 4: Difference of adjusted mean value from that of placebo group (standard error) / Change from baseline in SARS-CoV-2 virus titer on Day 4: Maximum value / Change from baseline in SARS-CoV-2 virus titer on Day 4: Mean value / Change from baseline in SARS-CoV-2 virus titer on Day 4: Median value / Change from baseline in SARS-CoV-2 virus titer on Day 4: Minimum value: mild/moderate patients, ITT1 population
Description: The primary endpoints of Phase 2b Part were the time-weighted average change in the total score of 12 COVID-19 symptoms per unit time from the start of the first administration (Day 1) to 120 hours (Day 6), and the change from baseline in SARS-CoV-2 virus titer on Day 4, in mild/moderate SARS-CoV-2-infected patients, and the clinical improvement and the antiviral effect of the active drug were confirmed.
The administration of the active drug is repeated oral administration once a day for 5 days. The 375/125 mg group received 375 mg on Day 1 as a loading dose and 125 mg on Days 2 to 5 as a maintenance dose. The 750/250 mg group received 750 mg on Day 1 as a loading dose and 250 mg on Days 2 to 5 as a maintenance dose.
The primary efficacy endpoints of Phase 2b Part for mild/moderate SARS-CoV-2-infected patients were the time-weighted average change in the total score of 12 COVID-19 symptoms per unit time from the start of the first administration (Day 1) to 120 hours (Day 6), and the change from baseline in SARS-CoV-2 virus titer on Day 4. The total score of 12 COVID-19 symptoms is the sum of the scores determined by evaluation in four grades (0: none, 1: mild, 2: moderate, 3: severe) in the subject daily records for each of the 12 COVID-19 symptoms (low energy and tiredness, muscle or body aches, headache, chills or shivering, feeling hot or feverish, stuffy and runny nose, sore throat, cough, shortness of breath (difficulty breathing), nausea, vomiting, diarrhea).
Pairwise comparison was performed between each active drug dose group and the placebo group. […] Pairwise comparison was performed between each active drug dose group and the placebo group.

In the case of `Cn1cnc(Cn2c(=O)[nH]/c(=N\c3cc4cn(C)nc4cc3Cl)n(Cc3cc(F)c(F)cc3F)c2=O)n1` [(6E)-6-[(6-chloro-2-methyl-2H-indazol-5-yl)imino]-3-[(1-methyl-1H-1,2,4-triazol-3-yl)methyl]-1-[(2,4,5-trifluorophenyl)methyl]-1,3,5-triazinane-2,4-dione], the “Exacerbation rate (Ordinal scale deteriorated to 3 or more for the first time)” value (SARS-CoV-2 [1]; 375/125 mg group) is reported as 0.0%, the “Number of exacerbations/number of cases to be analyzed” value (SARS-CoV-2 [1]; 375/125 mg group) is reported as 0/13 and the “Change from baseline in total score of 12 COVID-19 symptoms compared to placebo group” value (SARS-CoV-2 [1]; 375/125 mg group and 750/250 mg group, all time points on Day 2 and thereafter, FIG. 6) is reported as “tendency for the total score of the twelve COVID-19 symptoms to numerically improve”. For the same compound, the “Exacerbation rate (Ordinal scale deteriorated to 3 or more for the first time)” value (SARS-CoV-2 [1]; 750/250 mg group) was 0.0%, the “Number of exacerbations/number of cases to be analyzed” value (SARS-CoV-2 [1]; 750/250 mg group) was 0/12 and the EC50 (SARS-CoV-2 [2]; Severe acute respiratory syndrome coronavirus 2, VeroE6/TMPRSS2, Alpha strain (QHN001)) was 310 nM. It also gave an EC50 (SARS-CoV-2 [2]; Severe acute respiratory syndrome coronavirus 2, VeroE6/TMPRSS2, Alpha strain (QHN002)) of 460 nM, an EC50 (SARS-CoV-2 [2]; Severe acute respiratory syndrome coronavirus 2, VeroE6/TMPRSS2, Alpha strain (QK002)) of 330 nM and an EC50 (SARS-CoV-2 [2]; Severe acute respiratory syndrome coronavirus 2, VeroE6/TMPRSS2, Beta strain (TY8-612)) of 400 nM. For the same compound, the EC50 (SARS-CoV-2 [2]; Severe acute respiratory syndrome coronavirus 2, VeroE6/TMPRSS2, Delta strain (TY11-927-P1)) was 410 nM, the EC50 (SARS-CoV-2 [2]; Severe acute respiratory syndrome coronavirus 2, VeroE6/TMPRSS2, Gamma strain (TY7-501)) was 500 nM and the EC50 (SARS-CoV-2 [2]; Severe acute respiratory syndrome coronavirus 2, VeroE6/TMPRSS2, Gamma strain (TY7-503)) was 430 nM. It also gave an EC50 (SARS-CoV-2 [2]; Severe acute respiratory syndrome coronavirus 2, VeroE6/TMPRSS2, Lambda strain (TY33-456)) of 270 nM, an EC50 (SARS-CoV-2 [2]; Severe acute respiratory syndrome coronavirus 2, VeroE6/TMPRSS2, Mu strain (TY26-717)) of 430 nM and an EC50 (SARS-CoV-2 [2]; Severe acute respiratory syndrome coronavirus 2, VeroE6/TMPRSS2, Omicron BA.1 strain (TY38-873)) of 290 nM. For the same compound, the EC50 (SARS-CoV-2 [2]; Severe acute respiratory syndrome coronavirus 2, VeroE6/TMPRSS2, Omicron BA.1.1 strain (TY38-871)) was 360 nM, the EC50 (SARS-CoV-2 [2]; Severe acute respiratory syndrome coronavirus 2, VeroE6/TMPRSS2, Omicron BA.2 strain (TY40-385)) was 520 nM and the EC50 (SARS-CoV-2 [2]; Severe acute respiratory syndrome coronavirus 2, VeroE6/TMPRSS2, Omicron BA.2.12.1 strain (TY41-721)) was 240 nM. The EC50 (SARS-CoV-2 [2]; Severe acute respiratory syndrome coronavirus 2, VeroE6/TMPRSS2, Omicron BA.2.75 strain (TY41-716)) was 300 nM, the EC50 (SARS-CoV-2 [2]; Severe acute respiratory syndrome coronavirus 2, VeroE6/TMPRSS2, Omicron BA.4 strain (TY41-703)) was 220 nM and the EC50 (SARS-CoV-2 [2]; Severe acute respiratory syndrome coronavirus 2, VeroE6/TMPRSS2, Omicron BA.5 strain (TY41-702)) was 400 nM. For the same compound, the EC50 (SARS-CoV-2 [2]; Severe acute respiratory syndrome coronavirus 2, VeroE6/TMPRSS2, Omicron BQ.1.1 strain (TY41-796)) was 480 nM, the EC50 (SARS-CoV-2 [2]; Severe acute respiratory syndrome coronavirus 2, VeroE6/TMPRSS2, Omicron XBB.1 strain (TY41-795)) was 330 nM and the EC50 (SARS-CoV-2 [2]; Severe acute respiratory syndrome coronavirus 2, VeroE6/TMPRSS2, Omicron XE strain (TY41-686)) was 440 nM. The EC50 (SARS-CoV-2 [2]; Severe acute respiratory syndrome coronavirus 2, VeroE6/TMPRSS2, Theta strain (TY28-444)) was 290 nM, the “Proportion of patients with a positive virus titer of 1.1 or more on Day 4” value (SARS-CoV-2 [3]; 375/125 mg group) was 1.9% and the “SARS-CoV-2 virus titer on Day 4 as compared with the placebo group” value (SARS-CoV-2 [3]; 375/125 mg group and 750/250 mg group, p<0.0001) was “statistically significantly reduced”. The “Proportion of patients with a positive virus titer of 1.1 or more on Day 4” value (SARS-CoV-2 [3]; 750/250 mg group) was 5.4%, the “Change from baseline in SARS-CoV-2 virus titer on Day 4: Adjusted mean value by covariance analysis (standard error)” value (SARS-CoV-2 [3]; 375/125 mg group) was −1.49 (0.04) and the “Change from baseline in SARS-CoV-2 virus titer on Day 4: Difference of adjusted mean value from that of placebo group (standard error)” value (SARS-CoV-2 [3]; 375/125 mg group) was −0.41 (0.05). For the same compound, the “Change from baseline in SARS-CoV-2 virus titer on Day 4: Maximum value” (SARS-CoV-2 [3]; 375/125 mg group) was 0.0, the “Change from baseline in SARS-CoV-2 virus titer on Day 4: Mean value” (SARS-CoV-2 [3]; 375/125 mg group) was −1.69 and the “Change from baseline in SARS-CoV-2 virus titer on Day 4: Median value” (SARS-CoV-2 [3]; 375/125 mg group) was −1.70. For the same compound, the “Change from baseline in SARS-CoV-2 virus titer on Day 4: Minimum value” (SARS-CoV-2 [3]; 375/125 mg group) was −3.7, the “Change from baseline in SARS-CoV-2 virus titer on Day 4: Adjusted mean value by covariance analysis (standard error)” value (SARS-CoV-2 [3]; 750/250 mg group) was −1.49 (0.04) and the “Change from baseline in SARS-CoV-2 virus titer on Day 4: Difference of adjusted mean value from that of placebo group (standard error)” value (SARS-CoV-2 [3]; 750/250 mg group) was −0.41 (0.05). The “Change from baseline in SARS-CoV-2 virus titer on Day 4: Maximum value” (SARS-CoV-2 [3]; 750/250 mg group) was 0.0, the “Change from baseline in SARS-CoV-2 virus titer on Day 4: Mean value” (SARS-CoV-2 [3]; 750/250 mg group) was −1.43 and the “Change from baseline in SARS-CoV-2 virus titer on Day 4: Median value” (SARS-CoV-2 [3]; 750/250 mg group) was −1.40. The “Change from baseline in SARS-CoV-2 virus titer on Day 4: Minimum value” (SARS-CoV-2 [3]; 750/250 mg group) was −3.4.
